By IC50 is commonly meant the concentration that gives 50% inhibition. As usually defined, the Ki is a measure of affinity in units of concentration, obtained from inhibition or displacement. A word on the inhibition: it is the share of the control response that was lost under treatment.

For experiment [1], the target named is T1, 4-hydroxy-tetrahydrodipicolinate synthase (Escherichia coli K-12) (UniProt P0A6L2).
T1 sequence (whole entry): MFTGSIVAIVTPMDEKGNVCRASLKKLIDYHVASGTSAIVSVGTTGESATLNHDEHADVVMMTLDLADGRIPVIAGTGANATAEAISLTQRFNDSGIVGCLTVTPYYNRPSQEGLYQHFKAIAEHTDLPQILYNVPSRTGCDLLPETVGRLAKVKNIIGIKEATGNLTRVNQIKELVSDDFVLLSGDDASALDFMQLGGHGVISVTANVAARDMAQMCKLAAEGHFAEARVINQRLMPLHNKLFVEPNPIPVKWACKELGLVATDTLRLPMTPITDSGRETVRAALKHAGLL
Briefly: Competitive inhibition of Escherichia coli dihydrodipicolinate synthase using pyruvate as substrate.

Experiment [2] deals with T1, 4-hydroxy-tetrahydrodipicolinate synthase (Escherichia coli K-12). As to the kind of experiment: Competitive inhibition of Escherichia coli dihydrodipicolinate synthase using DL-ASA as substrate.
Experiment [3] deals with T2, 4-hydroxy-tetrahydrodipicolinate synthase (Escherichia coli K-12, UniProt P0A6L2).
T2 sequence (P0A6L2 whole entry): T1 sequence (whole entry)
As to the kind of experiment: (§1) Inhibition of Escherichia coli dihydrodipicolinate synthase.

Experiment [4] concerns the target T1, 4-hydroxy-tetrahydrodipicolinate synthase (Escherichia coli K-12). The description is as §1.
The target of experiment [5] is T2, 4-hydroxy-tetrahydrodipicolinate synthase. As to the kind of experiment: Reversible inhibition of Escherichia coli dihydrodipicolinate synthase using pyruvate as substrate.
For experiment [6] the target is unchanged. As to the kind of experiment: Reversible inhibition of Escherichia coli dihydrodipicolinate synthase using ASA as substrate.
Experiment [7] deals with 4-hydroxy-tetrahydrodipicolinate synthase (Mycobacterium tuberculosis) (UniProt P9WP25). Briefly: Inhibition of recombinant N-terminal His-6 tagged Mycobacterium tuberculosis dihydrodipicolinate synthase using (S)-ASA as substrate preincubated for 5 mins followed by substrate addition measured over 10 mins by spectrophotometric analysis relative to control.
4-hydroxy-tetrahydrodipicolinate synthase (Mycobacterium tuberculosis), sequence (P9WP25 whole entry): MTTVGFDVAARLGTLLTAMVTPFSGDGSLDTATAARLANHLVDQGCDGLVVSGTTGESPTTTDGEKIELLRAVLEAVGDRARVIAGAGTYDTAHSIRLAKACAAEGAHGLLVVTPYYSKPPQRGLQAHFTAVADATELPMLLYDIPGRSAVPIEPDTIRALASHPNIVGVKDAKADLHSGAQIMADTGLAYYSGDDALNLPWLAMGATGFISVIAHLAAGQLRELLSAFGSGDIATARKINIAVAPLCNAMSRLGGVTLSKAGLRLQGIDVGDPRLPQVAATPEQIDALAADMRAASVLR
The target in experiment [8] is T2, 4-hydroxy-tetrahydrodipicolinate synthase. As to the kind of experiment: Inhibition of Escherichia coli dihydrodipicolinate synthase assessed as inhibitory dissociation constant using ASA as substrate.
The target of experiment [9] is T1, 4-hydroxy-tetrahydrodipicolinate synthase (Escherichia coli K-12). As to the kind of experiment: Uncompetitive inhibition of Escherichia coli dihydrodipicolinate synthase using DL-ASA as substrate.
Experiment [10] can be described thus: Inhibition of Campylobacter jejuni dihydrodipicolinate synthase.
Experiment [11] deals with T1, 4-hydroxy-tetrahydrodipicolinate synthase (Escherichia coli K-12). As to the kind of experiment: Inhibition of Escherichia coli dihydrodipicolinate synthase at 1 mM relative to control.
Experiment [12] has the same target. Briefly: Inhibition of Escherichia coli dihydrodipicolinate synthase at 1.2 mM relative to control.
Experiment [13] deals with T2, 4-hydroxy-tetrahydrodipicolinate synthase. As to the kind of experiment: Reversible competitive inhibition of Escherichia coli dihydrodipicolinate synthase.
Experiment [14] addresses T1, 4-hydroxy-tetrahydrodipicolinate synthase (Escherichia coli K-12). As to the kind of experiment: Uncompetitive inhibition of Escherichia coli dihydrodipicolinate synthase using pyruvate as substrate.
Experiment [15] shares this target. Briefly: Inhibition of Escherichia coli dihydrodipicolinate synthase at 4.6 mM relative to control.
Experiment [16] in a line: Reversible competitive inhibition of Bacillus subtilis PCI-219 dihydrodipicolinate synthase using pyruvate as substrate after 10 mins by double reciprocal plot analysis.
Experiment [17] in a line: Reversible competitive inhibition of Bacillus subtilis PCI-219 dihydrodipicolinate synthase using DL-ASA as substrate after 10 mins by double reciprocal plot analysis.
In experiment [18] the target is 4-hydroxy-tetrahydrodipicolinate synthase (Mycobacterium tuberculosis, UniProt P9WP25). As to the kind of experiment: Reversible inhibition of recombinant N-terminal His-6 tagged Mycobacterium tuberculosis dihydrodipicolinate synthase using (S)-ASA as substrate preincubated for 5 mins followed by substrate addition measured over 10 mins by spectrophotometric analysis.
4-hydroxy-tetrahydrodipicolinate synthase (Mycobacterium tuberculosis, UniProt P9WP25), sequence (P9WP25 whole entry): as above

For experiment [19], the target named is T1, 4-hydroxy-tetrahydrodipicolinate synthase (Escherichia coli K-12). As to the kind of experiment: Competitive inhibition of Escherichia coli dihydrodipicolinate synthase using ASA as substrate.
A short description of experiment [20]: Reversible inhibition of Campylobacter jejuni dihydrodipicolinate synthase.

Consider `O=C(O)C(=O)CF`, for which the results for the Kis in [1] and in experiment [2] were 0.22 mM and 2 mM, respectively.
In the case of `N#Cc1cccc(C#N)n1`, in experiment [3], the midpoint of inhibition, the IC50, lay at 300 µM.
As for `CC(=O)C(=O)O`, in experiment [4], the Kic was determined as 54 µM and the Kiuc was 12 µM.
Regarding `N[C@H]1CCOC1=O` [HOMOSERINE LACTONE], the Ki in [5] is 8000 to 15000 µM; in [6] it was 12000 to 22000 µM.
The molecule `O=C(O)C1=CCCC(C(=O)O)C1` (stereo unspecified) displayed an IC50 in [3] of 15000 µM.
In the case of `O=C(O)CCCCC(O)C(=O)O` (stereo unspecified), in experiment [7], the inhibition worked out at 74%.
In turn, `COC(=O)c1cccc(C(=O)OC)n1` gave an IC50 in experiment [3] of 700 µM.
Molecule `O=NN1CCC[C@H]1C(=O)O` showed an IC50 in [3] of 7500 µM.
As for `NC1CCCC1=O` (stereo unspecified), the Ki in experiment [8] lay in the range of 12000 to 24000 µM.
In the case of `CCC(=O)C(=O)O`, the Kis in experiment [1] turned out to be 0.83 mM; in experiment [9] it was 1.3 mM.
In the case of `N[C@@H](CCC(=O)O)C(=O)O` [GLUTAMIC ACID], the Ki in [8] is 9000 to 24000 µM.
`N[C@@H](CC(=O)O)C(=O)O` [ASPARTIC ACID]: the results for the Ki in experiment [8] and in [6] were 21000 to 39000 µM and 90 to 140 µM, respectively.
With `O=NN1CCCCC1C(=O)O` (racemic), the IC50 in experiment [3] came out at 3500 µM.
As to `O=C(O)c1cccc(C(=O)O)[n+]1[O-]`, half-maximal inhibition in experiment [3] (IC50) was put at 200 µM.
The same measure, in the same setting: the value for `c1cc(-c2nnn[nH]2)nc(-c2nnn[nH]2)c1` was 250 µM.
For `NCCCC[C@H](N)C(=O)O` [LYSINE], the IC50 is 65 µM in experiment [10] (read-out: IC50(app)) and 180 µM in [3]. This molecule also had a Kis in experiment [2] of 0.2 mM. Besides, the inhibition in experiment [11] is 50%.
In experiment [4], `N[C@@H](CC=O)C(=O)O` returned a Kic of 31 µM and a Kiuc of 26 µM.
In experiment [5], `O=C(O)C(=O)CBr` [BROMOPYRUVATE] registered a Ki of 160 µM.
In the case of `CCCC(=O)C(=O)O`, in experiment [1], the Kis was found to be 0.7 mM. The Kii in experiment [9] was found to be 1.6 mM.
Molecule `O=C(O)c1cccc(C(=O)O)n1` [DIPICOLINIC ACID] had an inhibition in [12] of 50%. The IC50 in [13] stood at 400 µM. In [3], this molecule came in with a Ki of 11000 µM.
Turning to `NCCSC[C@H](N)C(=O)O`, the Kii in [14] came to 1.9 mM; in experiment [9], 4.7 mM. Moreover, in [15], the inhibition is 50%. In [2], the Kis is 2.4 mM.
Turning to `COC(=N)c1cccc(C(=N)OC)n1`, the IC50 in experiment [3] was determined as 200 µM.
For `O=C(O)CCCCC(=O)C(=O)O`, the Ki in experiment [16] worked out at 160 µM; in experiment [17], 220 µM; in experiment [18] it was 33 µM.
As for `O=CCCC(=O)O`, in experiment [19], the Kis is 44 µM.
As to `O=C(O)c1cccc(C(=O)O)c1` [ISOPHTHALIC ACID], the Ki in experiment [3] lay in the range of 5400 to 5600 µM.
In experiment [1], `O=CC(=O)O` came in with a Kis of 0.016 mM. The Kii in [9] was found to be 0.028 mM.
With `NCCCC[C@@](N)(CC[C@](N)(CCCCN)C(=O)O)C(=O)O`, in experiment [10] (read-out: IC50), the IC50 is 0.3 µM. In experiment [20], this molecule came in with an inhibition constant (Ki) of 0.14 µM.
